The text below walks through data of patent US9433622B2, “Pyrimidine compounds useful in the treatment of diseases mediated by IKKE and/or TBK1 mechanisms” (DOMAINEX LIMITED, priority 2013, dated 2016).

The structures appear in SMILES notation. pIC50: −log10 of the molar value. Some results are limits rather than exact numbers.

One test has as its target IKKε (Homo sapiens (Human), UniProt Q14164). The experiment in a line: Lanthascreen TR-FRET kinase inhibition assay, IKKε. As to conditions: 20 μM ATP (apparent Km), 2 nM kinase, 1 h. The class given is biochemical. A digest of the protocol:
(§1)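 TR-FRET: terbium phosphospecific antibody detects phosphorylation of 400 nM fluorescein-IkBα peptide, 20 μM ATP, 20 °C, HEPES pH 7.5 with 3% DMSO. IKKε at 2 nM, 1 h reaction; TBK1 at 8 nM, 2.5 h reaction; started by kinase addition.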

In another test the target is TBK1 (Homo sapiens (Human), UniProt Q9UHD2). The experiment in a line: Lanthascreen TR-FRET kinase inhibition assay, TBK1. The class given is biochemical. As to conditions: 20 μM ATP (apparent Km), 8 nM kinase, 2.5 h. A digest of the protocol:
as §1
A general note: TR-FRET usually uses a lanthanide donor and a delayed reading to cut background.

TBK1, sequence (Q9UHD2 whole entry): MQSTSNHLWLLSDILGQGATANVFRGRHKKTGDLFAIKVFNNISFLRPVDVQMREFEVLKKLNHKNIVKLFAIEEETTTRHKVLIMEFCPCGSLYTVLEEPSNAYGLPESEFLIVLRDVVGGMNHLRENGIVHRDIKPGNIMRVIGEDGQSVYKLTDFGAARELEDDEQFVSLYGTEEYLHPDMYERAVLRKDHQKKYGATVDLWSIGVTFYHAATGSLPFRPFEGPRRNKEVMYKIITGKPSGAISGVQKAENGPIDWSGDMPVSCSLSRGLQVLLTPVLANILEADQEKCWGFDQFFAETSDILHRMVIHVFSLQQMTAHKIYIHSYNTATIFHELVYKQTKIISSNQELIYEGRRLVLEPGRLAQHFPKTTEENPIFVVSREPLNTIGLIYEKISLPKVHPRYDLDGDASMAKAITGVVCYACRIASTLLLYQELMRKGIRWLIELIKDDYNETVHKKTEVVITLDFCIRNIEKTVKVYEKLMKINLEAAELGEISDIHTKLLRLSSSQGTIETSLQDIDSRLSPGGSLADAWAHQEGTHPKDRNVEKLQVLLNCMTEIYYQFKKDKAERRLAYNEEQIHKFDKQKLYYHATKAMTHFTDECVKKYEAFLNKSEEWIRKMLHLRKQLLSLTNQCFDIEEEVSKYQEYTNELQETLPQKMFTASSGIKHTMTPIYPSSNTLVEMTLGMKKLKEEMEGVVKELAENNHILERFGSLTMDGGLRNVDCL
IKKε, sequence (Q14164 whole entry): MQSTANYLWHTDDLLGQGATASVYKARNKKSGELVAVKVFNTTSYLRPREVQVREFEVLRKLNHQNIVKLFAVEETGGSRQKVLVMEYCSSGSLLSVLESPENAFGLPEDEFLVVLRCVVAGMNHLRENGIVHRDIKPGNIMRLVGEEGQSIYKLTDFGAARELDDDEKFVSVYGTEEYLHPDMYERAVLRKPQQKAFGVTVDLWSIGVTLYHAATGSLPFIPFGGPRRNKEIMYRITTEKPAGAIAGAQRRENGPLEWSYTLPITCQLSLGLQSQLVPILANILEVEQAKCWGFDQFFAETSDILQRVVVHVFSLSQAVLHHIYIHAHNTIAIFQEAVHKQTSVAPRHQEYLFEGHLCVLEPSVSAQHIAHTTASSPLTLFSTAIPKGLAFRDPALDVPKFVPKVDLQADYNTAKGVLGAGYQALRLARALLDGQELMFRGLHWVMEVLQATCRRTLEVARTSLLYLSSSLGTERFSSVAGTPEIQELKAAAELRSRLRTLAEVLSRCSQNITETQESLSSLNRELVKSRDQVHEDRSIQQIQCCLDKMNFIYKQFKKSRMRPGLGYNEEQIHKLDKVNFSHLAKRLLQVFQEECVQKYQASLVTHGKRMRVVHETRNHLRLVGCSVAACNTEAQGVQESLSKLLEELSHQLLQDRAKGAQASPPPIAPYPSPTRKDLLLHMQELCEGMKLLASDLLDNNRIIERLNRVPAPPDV

As usually defined, the pIC50 is the IC50 on a negative log10 scale, so that one unit is a factor of ten. As to `N#Cc1cc(-c2ccnc(Nc3ccc(NC(=O)CN4CCOCC4)nc3)n2)cnc1N1CC[C@@H](F)C1` [DMX-112, N-(5-{4-[5-Cyano-6-((R)-3-fluoro-pyrrolidin-1-yl)-pyridin-3-yl]-pyrimidin-2-ylamino}-pyridin-2-yl)-2-morpholin-4-yl-acetamide], the figures for the pIC50 on IKKε and at TBK1 were > 7.82 and > 7.52, respectively.

Take `CC(=O)Nc1ccc(Nc2nccc(-c3cnc(N[C@@H]4CCOC4)c(C#N)c3)n2)cn1` [DMX-113, N-[5-(4-{5-Cyano-6-[(R)-(tetrahydro-furan-3-yl)amino]-pyridin-3-yl}-pyrimidin-2-ylamino)-pyridin-2-yl]-acetamide]: the pIC50 at IKKε and on TBK1 was > 6.00 each time.

On to `CN1CCC(Nc2ccc(Nc3nccc(-c4cnc(N[C@@H]5CCOC5)c(C#N)c4)n3)cn2)CC1` [DMX-114, 5-{2-[6-(1-Methyl-piperidin-4-ylamino)-pyridin-3-ylamino]-pyrimidin-4-yl}-2-[(R)-(tetrahydro-furan-3-yl)amino]-nicotinonitrile], for which the pIC50 at IKKε and on TBK1 was > 7.00 in each case.

As for `CN1CCC(NC(=O)c2cccc(Nc3nccc(-c4cnc(N[C@@H]5CCOC5)c(C#N)c4)n3)c2)CC1` [DMX-115, 3-(4-{5-Cyano-6-[(R)-(tetrahydro-furan-3-yl)amino]-pyridin-3-yl}-pyrimidin-2-ylamino)-N-(1-methyl-piperidin-4-yl)-benzamide], the pIC50 on IKKε and at TBK1 was > 6.00 throughout.

For `Cn1cc(Nc2nccc(-c3cnc(N[C@@H]4CCOC4)c(C#N)c3)n2)cn1` [DMX-116, 5-[2-(1-Methyl-1H-pyrazol-4-ylamino)-pyrimidin-4-yl]-2-[(R)-(tetrahydro-furan-3-yl)amino]-nicotinonitrile], the pIC50 on IKKε and on TBK1 was > 6.00 in each case.

In the case of `N#Cc1cc(-c2ccnc(Nc3cccc(C(=O)NC4CCNCC4)c3)n2)cnc1N[C@@H]1CCOC1` [DMX-117, 3-(4-{5-Cyano-6-[(R)-(tetrahydro-furan-3-yl)amino]-pyridin-3-yl}-pyrimidin-2-ylamino)-N-piperidin-4-yl-benzamide], the negative-log IC50 (pIC50) at IKKε and on TBK1 was > 6.00 each time.

`COCCNc1ncc(-c2ccnc(Nc3ccc(NC4CCN(C)CC4)nc3)n2)cc1C#N` [DMX-118, 2-(2-Methoxy-ethylamino)-5-{2-[6-(1-methyl-piperidin-4-ylamino)-pyridin-3-ylamino]-pyrimidin-4-yl}-nicotinonitrile]: the pIC50 at IKKε and on TBK1 was > 6.00 throughout.

Consider `CNc1ncc(-c2ccnc(Nc3ccc(NC4CCN(C)CC4)nc3)n2)cc1C#N` [DMX-119, 2-Methylamino-5-{2-[6-(1-methyl-piperidin-4-ylamino)-pyridin-3-ylamino]-pyrimidin-4-yl}-nicotinonitrile], for which the figures for the pIC50 at IKKε and on TBK1 were > 6.00 and > 7.00, respectively.

As for `CN1CCC(Nc2ccc(Nc3nccc(-c4cnc(NCCO)c(C#N)c4)n3)cn2)CC1` [DMX-120, 2-(2-Hydroxy-ethylamino)-5-{2-[6-(1-methyl-piperidin-4-ylamino)-pyridin-3-ylamino]-pyrimidin-4-yl}-nicotinonitrile], the pIC50 at IKKε was > 6.00; at TBK1, > 7.00.

As to `N#Cc1cc(-c2ccnc(Nc3ccc(CN4CCOCC4)nc3)n2)cnc1NC1CC1` [DMX-122, 2-Cyclopropylamino-5-[2-(6-morpholin-4-ylmethyl-pyridin-3-ylamino)-pyrimidin-4-yl]-nicotinonitrile], the pIC50 at IKKε was > 6.00; at TBK1, > 7.00.

In the case of `N#Cc1cc(-c2nc(Nc3ccc(CN4CCOCC4)nc3)ncc2F)cnc1NC1CC1` [DMX-123, 2-Cyclopropylamino-5-[5-fluoro-2-(6-morpholin-4-ylmethyl-pyridin-3-ylamino)-pyrimidin-4-yl]-nicotinonitrile], the pIC50 is > 6.00 on IKKε and > 7.00 at TBK1.

Regarding `N#Cc1cc(-c2nc(Nc3ccnc(NC(=O)CN4CCOCC4)c3)ncc2F)cnc1NC1CC1` [DMX-124, N-{4-[4-(5-Cyano-6-cyclopropylamino-pyridin-3-yl)-5-fluoro-pyrimidin-2-ylamino]-pyridin-2-yl}-2-morpholin-4-yl-acetamide], the figures for the pIC50 at IKKε and at TBK1 were > 6.00 and > 7.00, respectively.

Regarding `COCCNc1cc(Nc2ncc(F)c(-c3cnc(NC4CC4)c(C#N)c3)n2)ccn1` [DMX-125, 2-Cyclopropylamino-5-{5-fluoro-2-[2-(2-methoxy-ethylamino)-pyridin-4-ylamino]-pyrimidin-4-yl}-nicotinonitrile], the pIC50 on IKKε was > 6.00; at TBK1 it was > 7.00.

As for `N#Cc1cc(-c2ccnc(Nc3ccc4c(c3)CNC4)n2)cnc1N1CC[C@H](F)C1` [DMX-126, 5-[2-(2,3-Dihydro-1H-isoindol-5-ylamino)-pyrimidin-4-yl]-2-((S)-3-fluoro-pyrrolidin-1-yl)-nicotinonitrile], the pIC50 at IKKε and at TBK1 was > 7.82 in each case.

As for `COCCN1Cc2ccc(Nc3nccc(-c4cnc(N5CC[C@H](F)C5)c(C#N)c4)n3)cc2C1` [DMX-127, 2-((S)-3-Fluoro-pyrrolidin-1-yl)-5-{2-[2-(2-methoxy-ethyl)-2,3-dihydro-1H-isoindol-5-ylamino]-pyrimidin-4-yl}-nicotinonitrile], the pIC50 at IKKε and at TBK1 was > 7.82 in each case.

As to `Cc1nccn1CC(=O)Nc1ccc(Nc2nccc(-c3cnc(N4CC[C@H](F)C4)c(C#N)c3)n2)cn1` [DMX-128, N-(5-{4-[5-Cyano-6-((S)-3-fluoro-pyrrolidin-1-yl)-pyridin-3-yl]-pyrimidin-2-ylamino)-pyridin-2-yl)-2-(2-methyl-imidazol-1-yl)-acetamide], the pIC50 on IKKε and at TBK1 was > 7.52 throughout.

With `CC(=O)NCC1CCCN1c1ncc(-c2ccnc(Nc3ccc(CN4CCOCC4)nc3)n2)cc1C#N` (centres unmarked) [DMX-130, N-(1-{3-Cyano-5-[2-(6-morpholin-4-ylmethyl-pyridin-3-ylamino)-pyrimidin-4-yl]-pyridin-2-yl}-pyrrolidin-2-ylmethyl)-acetamide], the negative logarithm of the IC50 (pIC50) at IKKε and on TBK1 was > 6.00 in each case.

Take `N#Cc1cc(-c2ccnc(Nc3ccc(CN4CCOCC4)nc3)n2)cnc1N1CCCC1CC(N)=O` (centres unmarked) [DMX-131, 2-(1-{3-Cyano-5-[2-(6-morpholin-4-ylmethyl-pyridin-3-ylamino)-pyrimidin-4-yl]-pyridin-2-yl}-pyrrolidin-2-yl)-acetamide]: the pIC50 at IKKε and on TBK1 was > 7.52 in each case.

As for `N#Cc1cc(-c2ccnc(Nc3ccc(CN4CCOCC4)nc3)n2)cnc1N1CCNC(=O)CC1` [DMX-133, 5-[2-(6-Morpholin-4-yImethyl-pyridin-3-ylamino)-pyrimidin-4-yl]-2-(5-oxo-[1,4]diazepan-1-yl)-nicotinonitrile], the negative-log IC50 (pIC50) at IKKε and at TBK1 was > 6.00 in each case.

With `CC(Nc1ncc(-c2ccnc(Nc3ccc(CN4CCOCC4)nc3)n2)cc1C#N)C(N)=O` (centres unmarked) [DMX-134, 2-{3-Cyano-5-[2-(6-morpholin-4-ylmethyl-pyridin-3-ylamino)-pyrimidin-4-yl]-pyridin-2-ylamino}-propionamide], the pIC50 at IKKε and at TBK1 was > 7.00 throughout.

Turning to `CC(C(N)=O)N(C)c1ncc(-c2ccnc(Nc3ccc(CN4CCOCC4)nc3)n2)cc1C#N` (centres unmarked) [DMX-135, 2-({3-Cyano-5-[2-(6-morpholin-4-ylmethyl-pyridin-3-ylamino)-pyrimidin-4-yl]-pyridin-2-yl}-methyl-amino)-propionamide], the negative-log IC50 (pIC50) at IKKε and on TBK1 was > 7.00 each time.

`CC(C)C(Nc1ncc(-c2ccnc(Nc3ccc(CN4CCOCC4)nc3)n2)cc1C#N)C(N)=O` (centres unmarked) [DMX-136, 2-{3-Cyano-5-[2-(6-morpholin-4-ylmethyl-pyridin-3-ylamino)-pyrimidin-4-yl]-pyridin-2-ylamino}-3-methyl-butyramide]: the negative logarithm of the IC50 (pIC50) on IKKε and on TBK1 was > 7.82 in each case.

For the compound `CN(CC1CCOC1)c1ncc(-c2ccnc(Nc3ccc(CN4CCOCC4)nc3)n2)cc1C#N` (centres unmarked) [DMX-137, 2-[Methyl-(tetrahydro-furan-3-ylmethyl)-amino]-5-[2-(6-morpholin-4-ylmethyl-pyridin-3-ylamino)-pyrimidin-4-yl]-nicotinonitrile], the negative-log IC50 (pIC50) on IKKε and on TBK1 was > 6.00 in each case.

On to `N#Cc1cc(-c2ccnc(Nc3ccc(CN4CCOCC4)nc3)n2)cnc1NCC1CCOC1` (centres unmarked) [DMX-138, 5-[2-(6-Morpholin-4-ylmethyl-pyridin-3-ylamino)-pyrimidin-4-yl]-2-[(tetrahydro-furan-3-ylmethyl)-amino]-nicotinonitrile], for which the negative-log IC50 (pIC50) on IKKε was > 6.00; on TBK1, > 7.00.

In the case of `N#Cc1cc(-c2ccnc(Nc3ccc(CN4CCOCC4)nc3)n2)cnc1NC1CCCC1` [DMX-139, 2-Cyclopentylamino-5-[2-(6-morpholin-4-ylmethyl-pyridin-3-ylamino)-pyrimidin-4-yl]-nicotinonitrile], the pIC50 at IKKε and at TBK1 was > 7.00 in each case.

Take `COCCN(C)c1ncc(-c2ccnc(Nc3ccc(CN4CCOCC4)nc3)n2)cc1C#N` [DMX-140, 2-[(2-Methoxy-ethyl]-methyl-amino]-5-[2-(6-morpholin-4-ylmethyl-pyridin-3-ylamino)-pyrimidin-4-yl]-nicotinonitrile]: the pIC50 at IKKε and on TBK1 was > 6.00 each time.

Regarding `N#Cc1nc(-c2ccnc(Nc3ccc(NC(=O)CN4CCOCC4)nc3)n2)ccc1N1CC[C@H](O)C1` [DMX-141, N-(5-{4-[6-Cyano-5-((S)-3-hydroxy-pyrrolidin-1-yl)-pyridin-2-yl]-pyrimidin-2-ylamino}-pyridin-2-yl)-2-morpholin-4-yl-acetamide], the negative-log IC50 (pIC50) on IKKε and at TBK1 was > 7.00 each time.

Consider `N#Cc1nc(-c2ccnc(Nc3ccc(NC(=O)CN4CCOCC4)nc3)n2)ccc1N1CC[C@H](F)C1` [DMX-142], for which the negative-log IC50 (pIC50) at IKKε and on TBK1 was > 7.82 throughout.
